# Source: PMC12040169 (PLOS Biology, 2025)
# Experiment: in vitro
# Settings: human, hela cells, % viability
Structure (SMILES),"viability at 28.5 h, 10 µM [%]","viability at 28.5 h, 10 µM (bulk resorufin, single well) [%]"
CC(Cn1cccn1)NCC(=O)N(C)C1(C#N)CCCCC1 (stereo not drawn) [CBK305096],91.5,
COc1cccc(C(=O)NCC(C)(C)SCc2ccc(F)cc2)c1 [CBK022322],111,
CN(C)c1ccc2cccc(O)c2n1 [CBK149729],93.9,
COc1cc2c(cc1OC)CN(CC(N)=O)CC2 [CBK126391],86.8,
Cc1cccn2cc(C(=O)NCCCn3cccn3)nc12 [CBK281749],75.3,
Cn1c(=O)n(Cc2ccc(Cl)cc2)c2cccnc21 [CBK282333],101,
O=C(N/N=C/c1ccccc1Cl)c1ccc(C(=O)N/N=C/c2ccccc2Cl)cc1 [CBK261698],108,
O=C1c2ccc(-n3c(=O)c4cc5c(=O)n(-c6ccc7c(c6)C(=O)N(c6ccccc6)C7=O)c(=O)c5cc4c3=O)cc2C(=O)N1c1ccccc1 [CBK262136],88.1,
CC(=O)Nc1ccc(NC(=O)CSC2=C(C#N)C(c3ccco3)C3=C(CCCC3=O)N2)cc1 (stereo not drawn) [CBK264462],91.8,
COC(=O)c1ccc(N2CCN(Cc3cnoc3C)C(C)C2)cc1 (stereo not drawn) [CBK306442],109,
CCN(CC)CCN1CCN(c2cc(-c3cccnc3)ncn2)CC1 [CBK036957],94.8,
CCOc1cccc(-c2cncc(N3CCN(c4ccccn4)CC3)n2)c1 [CBK065985],91.5,
O=c1cc(NCc2ccncc2)c2ccccc2o1 [CBK017259],93.5,
CC(C)CC(NC(=O)N1CCOc2ccc(Cl)cc2C1)c1ncnn1C (stereo not drawn) [CBK306544],115,
Cc1nc(N)sc1-c1csc(Nc2ncccn2)n1 [CBK263307B],108,
COC(=O)CCC(=O)N1CCCC2(CCN(C(=O)c3ccoc3)C2)C1 (stereo not drawn) [CBK160988],100,
Cn1ccnc1Sc1nc2ccccc2nc1N1CCCC1 [CBK093791],92.4,
COCc1ccc(C(=O)N2CCC(c3cc4cnccc4[nH]3)CC2)cc1 [CBK283448],99.3,
CC[C@H](C)[C@H](NC(N)=O)C(=O)Nc1ccc(F)c([N+](=O)[O-])c1 [CBK297489],97.1,
OCc1nnn(-c2ccncc2)c1CO [CBK288549],96.8,
Nc1nc(=O)n([C@H]2C[C@@H](O)[C@@H](CO)O2)cc1O [CBK201221],98.2,
N=C(N)SCc1ncccc1O [CBK278318C],102,
CCOC(=O)C1(c2ccccc2)CCN(C(=O)CCC(=O)O)CC1 [CBK132197],,94.7

Structure (SMILES),"viability at 28.5 h, 10 µM [%]","viability at 28.5 h, 10 µM (bulk resorufin, single well) [%]"
O=C(c1cc[nH]n1)N1CCc2nc(-c3cccc(F)c3)sc2C1 [CBK281915],84.9,
N#CCCn1cc(C(=O)N2CCOCC2)c(-c2ccc(F)cc2)n1 [CBK306189],95.5,
Cc1ccc(S(=O)(=O)N2CC[C@H](c3nnc(-c4ccccc4)o3)C2)cc1 [CBK289405],111,
OCCN1CCN(c2nc3ccccc3nc2-c2ccccc2)CC1 [CBK268799C],111,
Nc1nonc1NC(=O)c1ccccc1Cl [CBK019040],99.3,
Cc1cc(C)c(S(=O)(=O)N2CCC(C(=O)NNC(=S)NC3CCCC3)CC2)c(C)c1 [CBK266844],98.4,
COc1cccc(-c2nn(CCC#N)cc2C(=O)N2CCCCC2)c1 [CBK305942],101,
CCOC1(c2ccccc2)N=C2C(Cl)=CC(C(F)(F)F)=CN2N=C1c1ccccc1 (stereo not drawn) [CBK020634],91.4,
CCN(CC(O)COc1ccc2ccccc2c1)S(=O)(=O)O (stereo not drawn) [CBK261113K],87.2,
CC(C)Cn1c(=O)c(C(=O)Nc2cccc(Cl)c2)c(O)c2ccccc21 [CBK159967],103,
O=C(Cn1cc(-c2ccc(CN3CCOCC3)cc2)nn1)NCc1cccc(C(F)(F)F)c1 [CBK165803],87.5,
COc1cccc(CNc2nccnc2-c2ccccc2F)c1OC [CBK037993],98.1,
Cc1cc(C[C@@H]2COC[C@H]2NCC(C)c2ccccc2)on1 (stereo partly drawn) [CBK285145],88.5,
O=C(Nc1nc(-c2cc3ccccc3o2)cs1)c1ccc(F)cc1 [CBK287756],114,
CN1CCC(N2CCN(C(=O)NCC3COc4ccccc4O3)CC2)CC1 (stereo not drawn) [CBK155881],107,
COc1ccccc1-c1cnc(N)c(N[C@H](C)c2ccccc2)n1 [CBK063705],102,
CC(=O)N1CCC(C(=O)Nc2cccc(-c3ccc4c(c3)COC3(CCNCC3)O4)c2)CC1 [CBK093674],,91.4
CC[C@H]1C[N@@]2CC[C@H]1C[C@@H]2CNS(=O)(=O)c1cccc(C#N)c1 [CBK288746],96.9,
CC(=O)Nc1nc2[nH]c(C)c(Cc3ccccc3)c(=O)n2n1 [CBK288202],89,
CC1CCCC(C)N1S(=O)(=O)c1ccc(NC(=O)CCn2cnc3ccccc3c2=O)cc1 (stereo not drawn) [CBK267643],95.5,
COc1cccc(NC(=O)CCS(=O)(=O)c2ccccc2)c1 [CBK270150],91.9,
O=C(CSc1nnc2c(n1)[nH]c1ccccc12)NCCOc1ccccc1 [CBK268358],101,
